Laboratory results as given in patent US20240317792A1, “CYCLIC DINUCLEOTIDE METAL COMPOUND, AND PREPARATION AND APPLICATION THEREOF” (HANGZHOU XINGAO BIOTECHNOLOGY CO., LTD., priority 2022, published 2024).

Tests used:
IRI mice (male SD mice) = experiment: Cerebral ischemia-reperfusion injury (IRI) model, TTC dyeing; assay type: in vivo; conditions: 2 h ischemia, 24 h reperfusion; caudal vein injection 5 mg/kg (Edaravone 6 mg/kg) after 30 min ischemia
Method: Experimental animals: healthy male mice, weighing 280-300 grams, purchased from Shanghai SLAC Laboratory Animal Co. Ltd, with quality certificate No. (SCXK (Shanghai) 2007-0005), and kept in clean animal houses.
Establishment of a mouse cerebral ischemia model of mice and experimental method: 280-300 grams of male […] mice were selected for experiments. The male SD mice were subjected to fasting without water deprivation for 12 h before operation followed by weighing, numbering and random grouping. The male SD mice were anesthetized by intraperitoneal injection of 10 wt. % chloral hydrate at a dosage of 0.3 mL/100 g. After the male SD mice had no pain reflexes, they were subjected to neck skin preparation followed by being fixed on a dissecting table in supine position. After neck skins were disinfected with sterilized cotton balls, about 1 cm of the neck skins were cut in mid-cervical to expose subcutaneous tissues, and subcutaneous fat and the fascia were bluntly plucked with curved tweezers to expose neck muscle groups. The common carotid arteries and their upwardly internal and external carotid branches were visualized by opening the digastric muscle. The external, internal, and common carotid arteries were carefully dissected, and a thin wire was threaded under each of the three arteries, and homemade plastic spacers were placed under the common carotid arteries. The external carotid arteries and proximal ends of the common carotid arteries were ligated. After the internal common carotid arteries were clamped by arterial clips, the common carotid arteries were stuck into with homemade curved hooks followed by picking up and leading in monofilaments. The spacers were removed, and the monofilaments were gently pushed into the internal common carotid arteries and craniums. […] At this time, blood supplies of the middle cerebral arteries from the anterior cerebral arteries were blocked. Thin wires under the internal carotid arteries were ligated to secure the monofilaments to prevent the monofilaments from retreating. Excess thin wires were cut, penicillin was applied to wounds to prevent infection. The male SD mice were sutured and placed under a warm lamp to keep warm. Timing was performed when blood flows of the middle cerebral arteries were blocked by the monofilaments. After 2 hours, the monofilaments were gently pulled out and the black marks were seen, then reperfusion can be achieved.
Triphenyl tetrazolium chloride (TTC) dyeing: After being injured by 2 h cerebral ischemia and 24 h reperfusion, the male SD mice were anesthetized with 0.3 mL/100 g dosage of 10 wt. % of chloral hydrate by intraperitoneal injection and subjected to abdominal aorta bleeding to reduce influence of blood in brains. Then whole heads of the male SD mice were removed immediately after decapitating, and washed with normal saline followed by being promptly put into a −20° C. refrigerator to freeze for 20 min. Frozen brains were collected and subjected to coronal sections, each 2 mm of thickness, by a blade. Then the coronal sections were subjected to dark dyeing in a 2 wt. % of TTC solution for 20 min and fixing in a 4 wt. % of polyformaldehyde solution for 6 h followed by photographing. Then, Photoshop software was used to define area and calculate, and a formula was represented as a percentage of cerebral ischemic area=a total area of white area/a total area of ischemic hemisphere×100%.
Drug preparation and experimental grouping: Edaravone was used as a positive control drug, and an Edaravone injection was 30 mg/20 mL. A single dosage for each of the male SD mice was 0.4 mL/100 g, that is, 6 mg/kg. The cyclic dinucleotide metal compounds prepared in Examples 1-5 were prepared into […] injection drugs with the normal saline. Each of the male SD mice was subjected to caudal vein injection with 0.4 mL/100 g dosage of drugs, that is, 5 mg/kg. The male SD mice were divided into 8 groups (10 mice in each group). […]

[1] = test system: mouse colorectal cancer cell line CT26
Method: Experimental animals: BALB/c ordinary mice, male, weighing 20-22 grams, 7-8 weeks old, at SPF level, purchased from Shanghai SLAC Laboratory Animal Co. Ltd.
Tumour cell line herein was the mouse colorectal cancer cell line CT26 purchased from Chinese Academy of Sciences Cell Bank.
Establishment and intervention of tumor model mice: cells were subjected to culture and subculture, collected in the logarithmic phase and prepared as 1.0×10^7/mL of cell suspension. 0.2 mL of the cell suspension was injected armpits of forelegs of the mice (with a cell number of 2.0×10^6), and tumor transplantation was successful in about 7 days. The mice were randomly divided into 5 groups (10 mice in each group). […] The mice were subjected to administration by intraperitoneal injection with the volume of 200 μL per mice once every 2 days for 20 days. After 20 days, the mice were weighed and their blood was collected. Then the mice were killed, and the tumor were weighed. The formula of inhibitory rate of tumor was represented as inhibitory rate of tumor=[1-average tumor weight of experimental group/average tumor weight of the negative control group]×100%.

[2] = oxaliplatin 5 mg/kg alone or + 10 mg/kg compound, intraperitoneal once every 2 days, 20 days
[3] = peripheral blood after 20 days administration
[4] = serum after 20 days administration

**Q.** Which “Average value of percentage of cerebral ischemic area” value (IRI mice (male SD mice)) does the source give for `CC1=NN(c2ccccc2)C(=O)C1` [Edaravone, reference compound] here?
**A.** 28.97%

**Q.** Which “Inhibitory rate (of tumor)” value ([1]; CT26, oxaliplatin 5 mg/kg alone or + 10 mg/kg compound, 20 days) does the source give for `O=C1[O][Pt]2([NH][C@@H]3CCCC[C@H]3[NH]2)[O]C1=O` [oxaliplatin] here?
**A.** 78%

**Q.** What about the Survival rate [1, 2] of the same compound?
**A.** 50%

**Q.** And the Weight loss [1, 2]?
**A.** 40%

**Q.** And the Hemoglobin [1, 3]?
**A.** 88 ± 9 g/L

**Q.** And the Platelets [1, 3]?
**A.** 368 ± 56 × 10^3/μL

**Q.** And the Red blood cells [1, 3]?
**A.** 4.51 ± 0.65 × 10^6/μL

**Q.** What about the White blood cells [1, 3] of the same compound?
**A.** 3.87 ± 0.08 × 10^3/μL

**Q.** And the ALT [1, 4]?
**A.** 118.25 ± 7.84 U/L

**Q.** And the Creatinine [1, 4]?
**A.** 80.33 ± 4.65 µmol/L
